Test results reported in the supplement of paper PMC10307832.

How the values were obtained:
Test in all cases: relative viability (nuclei count vs DMSO), 5 days (fraction); higher = more cells survive
Navitoclax = compound: CC1(C)CCC(c2ccc(Cl)cc2)=C(CN2CCN(c3ccc(C(=O)NS(=O)(=O)c4ccc(N[C@H](CCN5CCOCC5)CSc5ccccc5)c(S(=O)(=O)C(F)(F)F)c4)cc3)CC2)C1 [Navitoclax]
In short: (§1)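 Lung cancer cell lines in 1536-well plates were kept overnight at 37 °C, then pinned with five library-drug doses (not always all listed) spaced by √10 on vehicle-anchored plates. After 5 days without medium change, cells were fixed, permeabilised and Hoechst-stained in one step, imaged at 4×, and nuclei were counted with MetaXpress. Viability is treated-well nuclei divided by vehicle-well nuclei, taken as the median over plates. Plates passed only with control CV below 25% and at least one doubling.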

C-75 = compound: CCCCCCCC[C@H]1[C@@H](C(=C)C(=O)O1)C(=O)O [C-75]
In short: as §1

AZD7762 = compound: NC(=O)Nc1cc(-c2cccc(F)c2)sc1C(=O)N[C@H]1CCCNC1 [AZD7762]
In short: as §1

[1] = compound: O=C(O)c1ccc(-c2c[nH]c3ncc(-c4ccccc4)cc23)cc1C1CCCC1
In short: as §1

XAV939 = compound: Oc1nc(-c2ccc(C(F)(F)F)cc2)nc2c1CSCC2 [XAV939]
In short: as §1

Cell Line | relative viability (Navitoclax; 0.005 µM) | relative viability (Navitoclax; 0.01581 µM) | relative viability (Navitoclax; 0.05 µM) | relative viability (Navitoclax; 0.1581 µM) | relative viability (Navitoclax; 0.5 µM) | relative viability (C-75; 0.08 µM) | relative viability (C-75; 0.253 µM) | relative viability (C-75; 0.8 µM) | relative viability (C-75; 2.53 µM) | relative viability (C-75; 8 µM) | relative viability (AZD7762; 0.01 µM) | relative viability (AZD7762; 0.03162 µM) | relative viability (AZD7762; 0.1 µM) | relative viability (AZD7762; 0.3162 µM) | relative viability (AZD7762; 1 µM) | relative viability ([1]; 0.04 µM) | relative viability ([1]; 0.1265 µM) | relative viability ([1]; 0.4 µM) | relative viability ([1]; 1.265 µM) | relative viability (XAV939; 0.08 µM) | relative viability (XAV939; 0.253 µM) | relative viability (XAV939; 0.8 µM) | relative viability (XAV939; 2.53 µM) | relative viability (Navitoclax; 0.5 µM, anchor plate) | relative viability (AZD7762; 0.2 µM, anchor plate)
NCI-H661 | 0.985 | 0.995 | 1.05 | 0.916 | 0.935 | 0.983 | 1.01 | 0.98 | 0.911 | 0.94 | 1.03 | 1.11 | 1.1 | 0.979 | 0.558 | 0.915 | 1.02 | 0.969 | 1.01 | 1.02 | 0.952 | 0.945 | 0.956 |  | 
NCI-H727 | 0.886 | 1.18 |  | 0.87 | 0.894 | 0.824 | 1.4 | 0.968 | 0.73 | 1.04 | 0.838 | 1.18 | 0.953 | 0.764 | 0.444 | 0.995 | 1.01 | 0.986 | 0.928 | 1.11 | 0.731 | 0.899 | 0.975 | 0.491 | 0.576
NCI-H838 | 0.964 | 1.02 | 1.08 | 1 | 0.97 | 0.989 | 0.82 | 0.941 | 0.867 | 0.895 | 1.04 | 0.982 | 1.01 | 0.942 | 0.599 | 0.972 | 1.16 | 0.994 | 0.926 | 0.965 | 0.892 | 0.805 | 0.624 | 1.21 | 0.944
NCI-H1299 | 1 | 1.05 | 1 | 1.01 | 1.03 | 1.01 | 0.98 | 1.02 | 0.899 | 1.03 | 1.06 | 1.01 | 1.06 | 1.02 | 0.56 | 1.03 | 1.04 | 0.957 | 0.878 | 1.04 | 0.939 | 1.06 | 1.03 | 1.03 | 
NCI-H1355 | 1.03 | 1.07 | 0.956 | 0.975 | 0.986 | 0.966 | 1.01 | 0.921 | 0.89 | 0.982 | 0.874 | 0.979 | 0.938 | 1.09 | 0.785 | 1.02 | 1.14 | 0.979 | 0.744 | 0.938 | 0.831 | 0.826 | 0.759 | 1.01 | 0.819
NCI-H1395 | 0.998 | 0.943 | 0.922 | 0.905 | 1 | 0.828 | 0.893 | 0.794 | 0.788 | 1.04 | 0.931 | 1.11 | 1.06 | 0.461 | 0.408 | 0.94 | 1.01 | 0.893 | 0.837 | 0.918 | 0.903 | 0.88 | 0.972 | 1.25 | 0.398
NCI-H1437 | 0.969 | 1.05 | 0.932 | 0.958 | 0.974 | 0.941 | 1.05 | 0.919 | 0.984 | 0.987 | 1.05 | 0.963 | 1.04 | 1.01 | 0.867 | 0.962 | 0.988 | 0.976 | 0.586 | 1.03 | 0.901 | 0.999 | 0.93 | 1.06 | 1.11
NCI-H1563 | 0.973 | 1.04 | 0.9 | 1.04 | 1.28 | 1.06 | 1.06 | 0.884 | 0.92 | 1.08 | 1.02 | 1.01 | 0.993 | 1.05 | 0.914 | 1.07 | 1.03 | 0.958 | 1.01 | 0.978 | 0.987 | 0.822 | 0.698 |  | 
NCI-H1623 | 0.936 | 0.957 | 0.812 | 0.984 | 1.03 | 1.02 | 1.22 | 1.02 | 0.931 | 0.978 | 0.869 | 0.938 | 0.936 | 1.1 | 0.895 | 0.963 | 0.995 | 0.932 | 0.762 | 0.922 | 0.838 | 0.848 | 0.814 |  | 
NCI-H1648 | 0.914 | 1.07 |  | 0.78 | 1.09 | 0.758 | 1.27 | 0.737 |  | 0.899 | 1.29 | 1.08 | 0.87 | 0.932 | 0.99 | 1 | 1.15 | 0.75 | 0.768 | 0.794 | 0.764 | 0.887 | 0.737 |  | 0.676
NCI-H1650 | 0.896 | 1.16 | 0.97 | 1.01 | 0.857 | 0.925 | 0.984 | 0.927 | 0.976 | 1.09 | 0.96 | 0.929 | 0.95 | 0.627 | 0.267 | 0.891 | 1.08 | 0.985 | 0.716 | 0.955 | 0.844 | 0.888 | 0.616 | 1.2 | 
NCI-H1651 | 0.989 | 1 | 0.802 | 0.942 | 1 | 0.956 | 1.02 | 0.952 | 0.935 | 0.969 | 1.02 | 0.98 | 1.03 | 0.956 | 0.531 | 0.931 | 1.08 | 0.968 | 0.784 | 1 | 0.85 | 0.943 | 1 | 1.06 | 0.495
NCI-H1666 | 1.02 | 1.02 | 0.853 | 1.02 | 1.01 | 1.05 | 1.21 | 0.946 | 0.721 | 0.96 | 1.09 | 1.04 | 1.1 | 1.01 | 0.98 | 0.958 | 1.01 | 0.949 | 0.68 | 1.03 | 0.98 | 0.977 | 0.929 | 0.994 | 0.895
NCI-H1703 | 0.907 | 1.05 | 0.933 | 0.994 | 0.939 | 0.993 | 0.929 | 0.83 | 0.869 | 0.817 | 0.767 | 0.35 | 0.276 | 0.174 | 0.194 | 0.949 | 1.04 | 1.11 | 1.02 | 1.05 | 0.98 | 0.929 | 0.812 | 1.18 | 0.132
